From patent US20230174571A1, “METHOD OF TREATING SHIP1-MEDIATED DISEASES USING PELOROL DERIVATIVES” (Zebrapeutics Inc., priority 2020, published 2023)

What was measured:
SHIP1 and STAT3 [1] = target: T1, SHIP1 and STAT3 (Mus musculus, UniProt Q9ES52); test: In vitro pull down assay of His6-SHIP1 with STAT3; assay type: cell-based; conditions: J17 His6-SHIP1 cells; 100 ng/ml IL10 or IL6, 20 μM compound I-2; 5 minutes
T1 construct: expressed in transfected cells; host or cells: J17 (SHIP1-/- mouse BMDM-derived line), lentiviral transduction
T1 sequence (Q9ES52 1-1191): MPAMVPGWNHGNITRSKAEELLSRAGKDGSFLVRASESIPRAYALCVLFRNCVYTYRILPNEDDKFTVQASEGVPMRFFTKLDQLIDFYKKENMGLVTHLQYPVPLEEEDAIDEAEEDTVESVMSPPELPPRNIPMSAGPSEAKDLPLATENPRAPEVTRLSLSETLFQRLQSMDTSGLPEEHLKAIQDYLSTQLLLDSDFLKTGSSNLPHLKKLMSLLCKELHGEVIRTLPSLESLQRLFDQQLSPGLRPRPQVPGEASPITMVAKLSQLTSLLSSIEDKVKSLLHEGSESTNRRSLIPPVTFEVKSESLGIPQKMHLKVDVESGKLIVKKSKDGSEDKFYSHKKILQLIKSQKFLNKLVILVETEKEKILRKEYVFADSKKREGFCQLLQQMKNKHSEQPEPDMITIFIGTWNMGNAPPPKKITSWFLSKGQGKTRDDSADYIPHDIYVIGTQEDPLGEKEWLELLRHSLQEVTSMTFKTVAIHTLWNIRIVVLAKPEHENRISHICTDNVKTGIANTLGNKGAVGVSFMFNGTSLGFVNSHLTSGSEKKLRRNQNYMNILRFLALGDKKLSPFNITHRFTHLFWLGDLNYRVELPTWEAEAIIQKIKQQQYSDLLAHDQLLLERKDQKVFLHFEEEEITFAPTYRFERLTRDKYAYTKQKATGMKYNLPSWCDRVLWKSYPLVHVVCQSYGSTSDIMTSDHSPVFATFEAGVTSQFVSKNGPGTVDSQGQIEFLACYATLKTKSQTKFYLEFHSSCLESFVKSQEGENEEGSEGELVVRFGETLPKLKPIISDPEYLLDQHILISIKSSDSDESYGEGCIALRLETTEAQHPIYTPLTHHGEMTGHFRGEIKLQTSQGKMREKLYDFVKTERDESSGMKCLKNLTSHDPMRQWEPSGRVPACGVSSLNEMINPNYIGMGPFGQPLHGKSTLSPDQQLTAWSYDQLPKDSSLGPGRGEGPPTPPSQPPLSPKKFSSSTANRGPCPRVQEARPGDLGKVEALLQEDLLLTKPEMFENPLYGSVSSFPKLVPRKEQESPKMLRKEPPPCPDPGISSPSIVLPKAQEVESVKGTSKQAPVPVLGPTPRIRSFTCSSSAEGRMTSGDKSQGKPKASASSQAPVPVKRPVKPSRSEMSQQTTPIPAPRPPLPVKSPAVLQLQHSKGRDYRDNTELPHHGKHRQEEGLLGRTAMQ
Method: In vitro pull down assay. J17 His6-SHIP1 and Y190F cells were seeded at 2×10^6 cells per well in a 6-well plate. After overnight incubation, fresh cell media was added for 30 minutes before stimulation with 100 ng/ml IL10, […] or 20 μM compound I-2 for 5 minutes. Cells were lysed with Protein Solubilization Buffer (PSB, 50 mM Hepes, pH 7.5, […], 10 mM Na Pyrophosphate, 2 mM NaVO4, 2 mM Na Molybdate, 2 mM EDTA) containing 1% octylglucoside, 0.01 M imidazole, and protease inhibitor cocktail (Roche Diagnostics, Laval, QC) for 30 minutes at 4° C. and centrifuged at 10000 rpm for 15 minutes. EDTA resistant Ni beads (Roche Diagnostics, Laval, QC) were added to supernatants and the mixture incubated at 4° C. for 1 hour before spinning down and washing of beads three times with 0.1% octylglucoside wash buffer in PSB. Bead samples and starting material cell lysates were separated on a 7.5% SDS-PAGE gel.
Immunoblotting. Protein lysates were separated on SDS-PAGE gels and transferred onto polyvinylidene fluoride (PVDF) membrane (Millipore, Etobicoke, ON). Membranes were blocked and probed, where appropriate, with the following primary antibodies overnight: SHIP1 (P1C1) (Santa Cruz Biotechnology), pSHIP1 (Y190) (Kinexus), STAT3 (9D8) (ThermoFisher Scientific), pSTAT3 (Y705) (Thermo Fisher Scientific), STAT1 (BD Transduction Laboratories), pSTAT1 (Y701) (Upstate Biotechnology), GAPDH and actin (Sigma-Aldrich). Membranes were developed with either Alexa Fluor® 660 anti-mouse IgG or Alexa Fluor® 680 anti-rabbit IgG antibodies (Thermo Fisher Scientific) and imaged using a LI-COR Odyssey Imager.

SHIP1 and STAT3 [2] = target: T1, SHIP1 and STAT3; test: Immunofluorescence of SHIP1 and STAT3 subcellular localization in peritoneal macrophages; assay type: cell-based; conditions: for membrane association of SHIP1 and STAT3 / nuclear localization of SHIP1 and STAT3: wild-type perimacs, 100 ng/ml IL10 or 20 μM I-2; for membrane association of SHIP1 and STAT3: 2 min; for nuclear localization of SHIP1 and STAT3: 20 min
Method: Isolation of mouse peritoneal macrophages. Primary peritoneal macrophages (perimacs) were isolated from mice by peritoneal lavage with 3 ml of sterile Phosphate Buffered Saline (PBS) (Thermo Fisher Scientific, Nepean, ON). Perimacs were collected and transferred to Mac media.
Immunofluorescence. Perimacs were seeded at 3×10^5 cells per well in 18-well Ibidi p-Slides (Ibidi GmbH, Martinsried, Germany) and allowed to adhere for 3 hours before washing with PBS to remove non-adherent cells. CD8+ T cells were seeded at 2×10^6 cells in 12-well tissue culture plates. Cells were stimulated with either 100 ng/ml IL10 or 20 μM compound I-2 for 2 or 20 minutes followed by 3×PBS washes and fixing of cells in 4% paraformaldehyde for 15 minutes at room temperature. Cells were incubated with anti-mouse CD16/CD32 Fc Block (BD Pharmingen) for 1 hour followed by an overnight incubation at 4° C. with either anti-SHIP1 antibody (P1C1) (Santa Cruz Biotechnology) or anti-STAT3 antibody (9D8) (ThermoFisher Scientific). Cells were then incubated with anti-mouse IgG (H+L)-Alexa Fluor 660 secondary antibody (ThermoFisher Scientific) for 1 hour, followed by, for perimacs, anti-CD11b-FITC antibody (BD Pharmingen) for 30 minutes. CD8+ T cells were mounted onto 18-well Ibidi p-Slides prior to confocal microscopy and cells were stored in Ibidi Mounting Media supplemented with ProLong Gold antifade reagent with DAPI (Molecular Probes, Life Technologies). Cells were imaged on a Leica SP5II on DM6000 confocal microscope with a 63×/1.4-0.6 Oil PL APO objective using 405, 488 and 633 nm laser lines for excitation. Final images were scanned sequentially acquiring eight Z-stacks with a frame-average of four. Co-localization analysis was performed using ImageJ software by first combining individual z-stack confocal images then performing deconvolution and co-localization using CUDA deconvolution and JACoP plugins respectively. Pearson's coefficient values were produced as a measurement of the degree of overlap between SHIP1 or STAT3 with CD11b (for Perimacs) or DAPI.

Molecule | association (co-precipitation) of SHIP1 and STAT3 (SHIP1 and STAT3 [1]) | mimicry of IL10 with respect to SHIP1 and STAT3 translocations (SHIP1 and STAT3 [2]; peritoneal macrophages) | membrane association of SHIP1 and STAT3 (SHIP1 and STAT3 [2]) | nuclear localization of SHIP1 and STAT3 (SHIP1 and STAT3 [2])
Cc1cc(O)cc2c1C1(C)CCC3C(C)(C)CCCC3(C)C1C2 (centres unmarked) [Compound I-1] | could by itself induce formation of a SHIP1/STAT3 complex | can mimic IL10 |  | 
CC12CCC3C(C)(C)C(N)CCC3(C)C1Cc1cc(O)cc(O)c12 (centres unmarked) [Compound I-2] | sufficient to induce association of SHIP1 and STAT3 |  | induced membrane association of both SHIP1 and STAT3 | both SHIP1 and STAT3 are found in the nucleus
IL10: anti-inflammatory cytokine interleukin-10 | resulted in co-precipitation of SHIP1 with STAT3 |  | induced membrane association of both SHIP1 and STAT3 | both SHIP1 and STAT3 are found in the nucleus
